Results: ChEMBL document CHEMBL1201862, “PubChem BioAssay data set” (2004)
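Results reflect a 48-hour exposure of cells in 96-well plates to compound at five concentrations. GI50 marks 50% less growth.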 Calls of active or inactive are those of the source. No stated cut-off is given here; in the data, active = GI50 up to about 1.1 µM and inactive = higher.

How the values were obtained:
Test in all cases: NCI tumour cell line growth inhibition, 48 h
NCI/ADR-RES = test system: NCI/ADR-RES
OVCAR-3 = test system: OVCAR-3
HCT-15 = test system: HCT-15
COLO 205 = test system: COLO 205
MOLT-4 = test system: MOLT-4
UO-31 = test system: UO-31
OVCAR-4 = test system: OVCAR-4
SF-539 = test system: SF-539
SR = test system: SR
SNB-75 = test system: SNB-75
A498 = test system: A498
M14 = test system: M14
MDA-MB-435 = test system: MDA-MB-435
NCI-H522 = test system: NCI-H522

SMILES | GI50 (NCI/ADR-RES) | GI50 (OVCAR-3) | GI50 (HCT-15) [µM] | GI50 (COLO 205) | GI50 (MOLT-4) | GI50 (UO-31) | GI50 (OVCAR-4) | GI50 (SF-539) | GI50 (SR) | GI50 (SNB-75) | GI50 (A498) | GI50 (M14) | GI50 (MDA-MB-435) | GI50 (NCI-H522)
C=C(CC[C@@H](C)[C@H]1CC[C@@]2(C)C3=C(CC[C@]12C)[C@@]1(C)CC[C@H](O)[C@@H](C)C1CC3)C(C)C (some centres not stated) | 1.4 µM (inactive) | 1.77 µM (inactive) | 1.2 | 1.17 µM (inactive) | 0.953 µM (active) | 1.23 µM (inactive) | 1.6 µM (inactive) | 1.47 µM (inactive) | 1.01 µM (active) | 1.25 µM (inactive) | 1.41 µM (inactive) | 1.17 µM (inactive) | 1.32 µM (inactive) | 
COC1C(O)C(C)OC(O[C@@H]2C[C@H]3CC[C@@H]4[C@H](CC[C@]5(C)[C@@H](C6=CC(=O)OC6)CC[C@]45O)[C@@]3(C)[C@H](O)C2)C1O (some centres not stated) | < 0.0443 µM (active) | < 0.0258 µM (active) | 0.0826 | 0.191 µM (active) | < 0.0162 µM (active) |  | 0.057 µM (active) | < 0.01 µM (active) | 0.0766 µM (active) | 0.126 µM (active) | 0.0525 µM (active) | 0.0741 µM (active) | 0.0883 µM (active) | < 0.01 µM (active)
CCN1CCCCCCCCCC(=N/O)/C(=N\O)C1 | > 100 µM (inactive) | > 100 µM (inactive) | > 100 |  | > 100 µM (inactive) | > 100 µM (inactive) |  | > 100 µM (inactive) | > 100 µM (inactive) | > 100 µM (inactive) | > 100 µM (inactive) | > 100 µM (inactive) | > 100 µM (inactive) | > 100 µM (inactive)
CC(C)(C)c1ccc(OCCOc2ccc(C(C)(C)C)cc2NC=O)c(NC=O)c1 | 5.68 µM (inactive) | 14.4 µM (inactive) | 3.81 | 1.94 µM (inactive) | 2.79 µM (inactive) | 5.69 µM (inactive) | 7.01 µM (inactive) | 8.77 µM (inactive) | 11.7 µM (inactive) | 19.3 µM (inactive) | 15.4 µM (inactive) | 5.48 µM (inactive) | 6.85 µM (inactive) | 6.7 µM (inactive)
c1ccc2c(CSCc3cccc4ccccc34)cccc2c1 | > 100 µM (inactive) | > 100 µM (inactive) | 1.91 |  | 34.5 µM (inactive) | > 100 µM (inactive) | > 100 µM (inactive) |  | 28.6 µM (inactive) | > 100 µM (inactive) | > 100 µM (inactive) | > 100 µM (inactive) | > 100 µM (inactive) | 99.3 µM (inactive)
C[Si](C)(OCCS(=O)(=O)O)C1S(=O)(=O)OCCOS1(=O)=O | 45.4 µM (inactive) | > 100 µM (inactive) | 67.5 | > 100 µM (inactive) | 30.3 µM (inactive) | 58.6 µM (inactive) | > 100 µM (inactive) | 23.9 µM (inactive) | 38.4 µM (inactive) | 20.5 µM (inactive) | > 100 µM (inactive) | 48.2 µM (inactive) | 43.5 µM (inactive) | 68.1 µM (inactive)
COCCOCCOCCOc1ccc(C(C#N)N(CCc2ccccc2)C(=O)c2cc(C(=O)N(CCc3ccccc3)C(C#N)c3ccc(OCCOCCOCCOC)cc3)cc(C(=O)N(CCc3ccccc3)C(C#N)c3ccc(OCCOCCOCCOC)cc3)c2)cc1 (configuration not stated) | > 100 µM (inactive) | > 100 µM (inactive) | > 100 | > 100 µM (inactive) | > 100 µM (inactive) | > 100 µM (inactive) | > 100 µM (inactive) | > 100 µM (inactive) | > 100 µM (inactive) | > 100 µM (inactive) | > 100 µM (inactive) | > 100 µM (inactive) | > 100 µM (inactive) | > 100 µM (inactive)
CC(C)(C)OC(=O)N1CCCC1C(=O)NC(c1ccccc1)c1ccccc1 (configuration not stated) | > 100 µM (inactive) | > 100 µM (inactive) | > 100 | > 100 µM (inactive) | > 100 µM (inactive) | > 100 µM (inactive) | > 100 µM (inactive) | > 100 µM (inactive) | > 100 µM (inactive) | > 100 µM (inactive) | > 100 µM (inactive) | > 100 µM (inactive) | > 100 µM (inactive) | > 100 µM (inactive)
COc1ccc(CCn2cnc3ccccc32)cc1 | > 100 µM (inactive) | > 100 µM (inactive) | > 100 | > 100 µM (inactive) | > 100 µM (inactive) | > 100 µM (inactive) | > 100 µM (inactive) | > 100 µM (inactive) | > 100 µM (inactive) | > 100 µM (inactive) | > 100 µM (inactive) | > 100 µM (inactive) | > 100 µM (inactive) | > 100 µM (inactive)
CC(=O)/C(=C/N1CCNC1=S)C(=O)Nc1ccccc1C | > 100 µM (inactive) | > 100 µM (inactive) | > 100 | > 100 µM (inactive) | > 100 µM (inactive) | > 100 µM (inactive) | > 100 µM (inactive) | > 100 µM (inactive) | 83 µM (inactive) | > 100 µM (inactive) | > 100 µM (inactive) | > 100 µM (inactive) | > 100 µM (inactive) | > 100 µM (inactive)
CC1CCCN1CCCOC(=O)c1ccc(OC2C=CCCC2)cc1 (configuration not stated) | 48.3 µM (inactive) | 39.2 µM (inactive) | 23.3 | 16.6 µM (inactive) | 25.1 µM (inactive) | 34.2 µM (inactive) | 50 µM (inactive) | 25.6 µM (inactive) | 28.1 µM (inactive) | 7.74 µM (inactive) | 67.1 µM (inactive) | 16.2 µM (inactive) | > 100 µM (inactive) | 20.9 µM (inactive)
COC(=O)/C=C/c1cnc2c(c1)oc(=O)n2CCc1ccccn1 | 40.1 µM (inactive) | > 100 µM (inactive) | > 100 | > 100 µM (inactive) | > 100 µM (inactive) | > 100 µM (inactive) | > 100 µM (inactive) | > 100 µM (inactive) | 30.8 µM (inactive) | > 100 µM (inactive) | 0.773 µM (active) | > 100 µM (inactive) | 20.8 µM (inactive) | 
O=C(/C=C/c1cccs1)c1ccc(C(=O)/C=C/c2cccs2)cc1 | > 100 µM (inactive) | > 100 µM (inactive) | > 100 | > 100 µM (inactive) | > 100 µM (inactive) | > 100 µM (inactive) | > 100 µM (inactive) | > 100 µM (inactive) | > 100 µM (inactive) | > 100 µM (inactive) | > 100 µM (inactive) | > 100 µM (inactive) | > 100 µM (inactive) | > 100 µM (inactive)
C(=N\c1ccc(-c2cc(-c3ccccc3)nc3ccc4ccccc4c23)cc1)/c1ccccc1 | 28.5 µM (inactive) | 20.4 µM (inactive) | 8.26 | 13.6 µM (inactive) | 18.6 µM (inactive) | 15.9 µM (inactive) | 2.39 µM (inactive) | 16.5 µM (inactive) | 10.2 µM (inactive) | 1.18 µM (inactive) | 26.7 µM (inactive) | 18.1 µM (inactive) | 21.2 µM (inactive) | 
CN(NC(=O)c1ccc(Cl)cc1)C1=NCCCCN1 | > 100 µM (inactive) | > 100 µM (inactive) | > 100 | > 100 µM (inactive) | > 100 µM (inactive) | > 100 µM (inactive) | > 100 µM (inactive) | > 100 µM (inactive) | > 100 µM (inactive) | > 100 µM (inactive) | > 100 µM (inactive) | > 100 µM (inactive) | > 100 µM (inactive) | > 100 µM (inactive)
CN(Cc1cnc2nc(N)nc(N)c2n1)c1ccc(C(=O)NC(CCC(=O)O)C(=O)O)cc1 (configuration not stated) | 0.0249 µM (active) | 0.111 µM (active) | < 0.01 | 0.705 µM (active) | 0.0205 µM (active) | 0.232 µM (active) | > 70.8 µM (inactive) | < 0.014 µM (active) | < 0.01 µM (active) | > 57 µM (inactive) | > 100 µM (inactive) | 0.117 µM (active) | < 0.01 µM (active) | 0.398 µM (active)
CO[C@@]12C[C@@H](C)C3=CCC(C)=C3CC1=C(C)C(=O)O2 | > 100 µM (inactive) | > 100 µM (inactive) | > 100 | > 100 µM (inactive) | 45.7 µM (inactive) | > 100 µM (inactive) | > 100 µM (inactive) |  | 44.2 µM (inactive) | 63.4 µM (inactive) | > 100 µM (inactive) | > 100 µM (inactive) | > 100 µM (inactive) | 
NC(=O)C(=O)c1ncn(Cc2ccccc2)c1N | > 100 µM (inactive) | > 100 µM (inactive) | > 100 | > 100 µM (inactive) |  |  | > 100 µM (inactive) | > 100 µM (inactive) | > 100 µM (inactive) | > 100 µM (inactive) | > 100 µM (inactive) | > 100 µM (inactive) | > 100 µM (inactive) | > 100 µM (inactive)
CCCCCC(=O)OCC1(CO)C/C(=C\CC(C(C)C)C(C)C)C(=O)O1 (configuration not stated) | 87.5 µM (inactive) | > 100 µM (inactive) | 75.2 | 17.9 µM (inactive) | 17.9 µM (inactive) | > 100 µM (inactive) | > 100 µM (inactive) |  | 27.2 µM (inactive) | 44.4 µM (inactive) | 86.1 µM (inactive) | > 100 µM (inactive) | > 100 µM (inactive) | 21.9 µM (inactive)
C#CCCCC(=C)C[C@H](OCc1ccccc1)[C@H]1OC(=O)[C@@H]1C | 40.9 µM (inactive) | 31.3 µM (inactive) | 79.4 |  |  | 23.9 µM (inactive) | > 100 µM (inactive) | 20.5 µM (inactive) | 44.5 µM (inactive) | > 100 µM (inactive) | > 100 µM (inactive) | 81.3 µM (inactive) | 48.6 µM (inactive) | 
COC(=O)C1(C)OC(C)=NC1(C(=O)OC)C(=O)OC (configuration not stated) | > 100 µM (inactive) | > 100 µM (inactive) | > 100 | > 100 µM (inactive) | > 100 µM (inactive) | > 100 µM (inactive) | > 100 µM (inactive) | > 100 µM (inactive) | > 100 µM (inactive) | > 100 µM (inactive) | > 100 µM (inactive) | > 100 µM (inactive) | > 100 µM (inactive) | 
